Assay type in all cases: in vivo
One assay deals with rat femur fracture model. Briefly: Rat femur fracture model, tissue observation in the femur fracture site. Here is the method:
A fracture model was surgically prepared at the left femoral diaphysis of a 6-week-old female SD strain (Crl: CD) IGS rat. A barbital-based anesthetic agent (Somnopentyl®, Kyoritsu Seiyaku Corporation) was intraperitoneally administered to an animal in order to anesthetize the animal. Isoflurane (Escain, Mylan Inc.) inhalation anesthesia was performed as an adjunct to anesthesia. The skin on the upside of the knee joint was incised, exfoliation was performed between the rectus femoris muscle and the vastus lateralis muscle to expose the femur. At around 0.5 mm distal from the center of the femoral diaphysis, the diaphysis was completely cut in cross-section by a bone cutter (Osada Equipment Co., Ltd.). After that, an injection needle 21G was inserted into the bone marrow between the greater trochanter and the femur neck of the left femur, and the muscle and the skin were sutured with 2 to 3 stitches. For the prevention of post-operative suppuration, potassium penicillin G for injection (Meiji Seika Kaisha, Limited) was administered as an antibiotic, and the suture site of the skin was disinfected with povidone-iodine (Isodine®, Meiji Seika Kaisha, Limited). As the test substance, CNP derivative A (SEQ ID NO: 13: the SEQ ID NO: 157 of the publication of US patent application US 2010-305031, produced by a method described in the publication) was used for repeated subcutaneous administration at 10 or 100 nmol/kg once per day for 8 weeks. Vehicle was administered to the control group. On the next day after the administration end date, the left and right femurs and the left and right tibiae were resected. For the resected bone, the bone length, and the callus size in the fracture site were measured, the left and right femurs were subjected to soft X-ray radiography, and then the healing state in the fracture site was determined. After that, a three-point bending strength test was performed by using a bone strength measuring device MZ-500S (MARUTO INSTRUMENT CO., LTD.), and a bone strength testing system CTR win Ver. 1.21 (System Supply Co., Ltd.). The bone after finishing the measurements was fixed with 10% neutral buffered formalin, and the pathologic sample was prepared and observed. The administration was performed to a group of 14 rats including spare rats. At 2, 4, and 6 weeks after the administration, one from each of the cases was sampled for follow-up, further the one in the control group, which had shown nonunion-like symptoms, was excluded from the evaluation, and eventually the results were evaluated as a group of 10 rats.

Assay [1] relates to rat closed femur fracture model. Briefly: Rat closed femur fracture model, torsion test of femur strength. Particulars: 4 weeks after fracture. From the text:
A 10-week-old male Wistar rat (Charles River Laboratories Japan, Inc.) was anesthetized by isoflurane inhalation (inhalation of 5%, and retention of 2%), and retained in a supine position. The peripheral portion of the left knee was shaved with a clipper, and disinfected with Hibitane. About 2 cm of the skin of the left knee on the upside of the patella was incised. About 5 mm of the joint capsule was incised along with the outer edge of the patella, and then the patella was dislocated inward from the trochlear groove. A 22G injection needle was inserted into the medullary cavity in the center of the trochlear groove, and pulled out. Into the hole, a Kirschner wire (MIZUHO Corporation) having a diameter of 1 mm, which had been cut to 32 mm in advance was fully inserted in the medullary cavity of the femur. The joint capsule and the incised part of the skin were sutured with nylon suture (Alfresa Pharma Corporation). The left hind limb was fixed to an Einhorn type of bone fracture preparation device (special order item), and mechanical stress was added to the femur by dropping a weight from a predetermined position to prepare the bone fracture. Soft X-ray images of the hind limb were taken by using CT for animals (LCT-200, Hitachi Aloka Medical, Ltd.), and as a result it was confirmed that transverse fracture was prepared in the vicinity of the center of the femur. For the infection prevention, potassium penicillin G (Meiji Seika Pharma Co., Ltd.) was administered intramuscularly. CNP derivative A was administered subcutaneously once a day at a dose of 0.42 mg/kg/day for 7 days from one day after the surgery. Vehicle was administered to the control group. 4 weeks after the preparation of the bone fracture, the animal was anesthetized by isoflurane inhalation, retained in a supine position, and then bled for the euthanasia. The left and right femurs were resected, immersed in a physiological saline solution, and cryopreserved in a freezer. The femurs were thawed at a later date, subjected to torsion test using a bone strength meter (MZ-500S, MARUTO INSTRUMENT CO., LTD.), and the strength of the femur was measured. The test was performed in 12 cases in each group.

Assay [2] shares this test system. The assay is described as follows: Rat closed femur fracture model, callus diameter. The conditions noted are these: 0.5 mg/kg/day continuous s.c. for one week; 7 days after fracture; versus vehicle group; FIG. 5B. The method, then:
In accordance with the method of Example 2, a rat closed fracture model was prepared. An administration solution was prepared so as to be a dosage corresponding to 0.5 mg/kg/day by using various NPR-B agonists (CNP derivative A, hCNP-53 (SEQ ID NO: 2), CNP derivative C (CNP-36, amino acid Nos. 18 to 53 of SEQ ID NO: 2), and CNP derivative D (Pro-Gly-CNP37, SEQ ID NO: 15)), and then loaded into an osmotic pump (Model 2001, Alzet). The osmotic pump was buried under the skin of the neck back of the animal retained in a supine position, and continuous subcutaneous administration was performed for one week. Vehicle was administered to the control group. 7 days after the preparation of the bone fracture, the animal was subjected to isoflurane inhalation anesthesia, retained in a supine position to open the abdomen, and then subjected to blood collection from the abdominal aorta. EDTA Na was added to the blood, then the EDTA Na-added blood was centrifuged and the plasma separated, and the resultant was cryopreserved. At a later date, the cGMP level in the plasma was measured by a RIA method using a kit (YSI-7702, YAMASA CORPORATION). After blood collection, the animal was bled for the euthanasia, and then the left femur was resected. Each maximum diameter of the sagittal plane and the coronal plane in the callus was measured, and the average value was used as a callus diameter. In accordance with the method of Example 3, the type X collagen gene expression level in the callus was measured. The measurement was performed for 12 cases in each group.

The mark [3] stands for this setting: 10 nmol/kg, 8-week administration, left femur fracture site, grade 0-5, mean ± SD, N=10.
The mark [4] stands for this setting: 100 nmol/kg, 8-week administration, left femur fracture site, grade 0-5, mean ± SD, N=10.
Where [5] appears, read: 100 nmol/kg, 8 weeks, compared to the control group.

From US20150125457A1, “BONE REPAIR PROMOTER” (DAIICHI SANKYO COMPANY, LIMITED, priority 2012, published 2015) come the findings set out here.

On to “CNP derivative A: CNP (1-22) Ghrelin (12-28, E17D): SEQ ID NO: 13; SEQ ID NO: 157 of US 2010-305031 (GLSKGCFGLKLDRIGSMSGLGCVQQRKDSKKPPAKLQPR; Chimeric CNP J (SEQ ID NO157) of US2010-305031 and WO2009/142307, and CNP derivative A of current invention.)”, for which, in the assay on rat femur fracture model (setting [3]), the “Callus Amount” value was 2.1 ± 1.0 Grade, the “Callus Cartilage” value is recorded as 1.5 ± 2.0 Grade, the “Callus Continuity” value was 3.2 ± 2.1 Grade and the “Cortical bone/bone marrow areas Cancellous bone” value came out at 2.9 ± 1.7 Grade. In the assay with rat femur fracture model (setting [3]), the “Cortical bone/bone marrow areas Cartilage” value turned out to be 0.9 ± 1.7 Grade, the “Cortical bone/bone marrow areas Connective tissue” value stood at 0.7 ± 1.6 Grade and the “Cortical bone/bone marrow areas Osteoclasts” value came to 0.6 ± 1.1 Grade. Further, in the assay with rat femur fracture model (setting [4]), the “Callus Amount” value is reported as 2.3 ± 1.2 Grade, the “Cortical bone/bone marrow areas Cancellous bone” value worked out at 3.0 ± 1.1 Grade and the “Cortical bone/bone marrow areas Continuity” value was 2.7 ± 1.8 Grade. In the assay on rat femur fracture model (setting [5]), the “Grade of cartilage formation” value was “tendency for a decreasing grade of cartilage formation” and the “Grade of ossification of the callus” value is given as “tendency for an increasing grade of ossification of the callus”. In the assay on rat femur fracture model (overall conclusion of tissue observation, 8 weeks after fracture), the “Repair of the bone cut region” value is on record as “promoted”. In assay [1] (0.42 mg/kg/day s.c. for 7 days, 12 individuals, vehicle 33%), the “Share of individuals whose fractured left femur showed the reference value (3 N×mm/deg) or more” value was found to be 83%. The “Number of individuals whose fractured left femur showed the reference value (3 N×mm/deg) or more” value in assay [1] (0.42 mg/kg/day s.c. for 7 days, out of 12 individuals) is reported as 10 individuals. Besides, the “Healing rate of the fracture” value in assay [1] (0.42 mg/kg/day s.c. for 7 days, versus vehicle) is given as “significantly improved”. Further, the “Strength of the left femur to which bone fracture had been prepared (torsion test stiffness)” value in assay [1] (0.42 mg/kg/day s.c. once a day for 7 days from one day after surgery, 12 cases) is recorded as “almost the same as that of the untreated right femur”. The “Maximum diameter of the callus generated in the left femur” value in assay [2] was “significantly larger”.
